Literature values in US20210322384A1, “Method of Treatment for Ketamine Infusion” (Eleusis therapeutics us, inc., priority 2018, published 2021).
Like-named read-outs stand apart in the source and are kept apart here.

Experiments:
patients [1] = settings: for improvement in MADRS score relative to standard antidepressants alone: plus standard antidepressants
patients [2] = settings: current state of the art ketamine treatments; industry standard

| Compound | reduction in MADRS score relative to control group (patients [1]; after 25 days) | improvement in MADRS score relative to standard antidepressants alone (patients [1]; at 24 hours after intranasal 84 mg) | improvement in MADRS score relative to standard antidepressants alone (patients [1]; at four hours after intranasal 84 mg) | side effects of nasal spray protocol (patients [1]; intranasal 84 mg aerosol spray) | response rate in alleviating depression symptoms (patients [2]) [%] |
| --- | --- | --- | --- | --- | --- |
| CN[C@]1(c2ccccc2Cl)CCCCC1=O [esketamine] | did not result in any significant reduction | significantly greater improvement | significantly greater improvement | significant side effects |  |
| CNC1(c2ccccc2Cl)CCCCC1=O (centres unmarked) [ketamine] |  |  |  |  | ~70 |
